Results reported in US5278052A, “Process for the simultaneous production of benanomicins A and B” (Zaidan Hojin Biseibutsu Kagaku Kenkyu Kai, priority 1987, dated 1994).
≈ marks a conversion by molar mass, not a printed value. Structures can show the parent of a compound that is named as a salt. Where two headings read alike, the source gives them in different places.

Columns and labels:
[1] = Distinction between the basic, acidic and neutral natures of substance; type: physicochemical
Candida tropicalis F-1 = experiment: MIC by standard serial dilution method (fungi); type: cell-based; details: F1, dexylosylbenanomicin B as hydrochloride
[2] = system: Cryptococcus neoformans F-10; experiment: MIC by standard serial dilution method (fungi); type: cell-based
[3] = system: Klebsiella pneumoniae PCI602; experiment: MIC by standard serial dilution method (bacteria)
[4] = system: Pseudomonas aeruginosa A3; experiment: MIC by standard serial dilution method (bacteria)
Salmonella typhi T-63 = experiment: MIC by standard serial dilution method (bacteria); details: Salmonella enterica
Pyricularia oryzae = experiment: microbe, parasite or virus in culture; type: cell-based
[5] = system: Staphylococcus aureus Smith; experiment: MIC by standard serial dilution method (bacteria)
[6] = system: Candida pseudotropicalis F-2; experiment: MIC by standard serial dilution method (fungi); type: cell-based; details: Kluyveromyces marxianus, F2
Xanthomonas citri = experiment: MIC by standard serial dilution method; type: cell-based
Candida albicans = experiment: therapeutic effect on experimental Candida infection in mice; details: 3 times (0, 6, 24 h)
[7] = system: Trichophyton asteroides 429; experiment: MIC by standard serial dilution method (fungi); type: cell-based; details: dexylosylbenanomicin B as hydrochloride
Proteus vulgaris OX19 = experiment: MIC by standard serial dilution method (bacteria)
Candida krusei F-5 = experiment: MIC by standard serial dilution method (fungi); type: cell-based; details: Pichia kudriavzevii, F5, dexylosylbenanomicin B as hydrochloride
Jcl:ICR-strain mice = details: mouse, in vivo, iv, 600 mg/kg
[8] = system: Saccharomyces cerevisiae F-7; experiment: MIC by standard serial dilution method (fungi); type: cell-based; details: F7, dexylosylbenanomicin B as hydrochloride
[9] = system: Trichophyton mentagrophytes (883); experiment: MIC by standard serial dilution method (fungi); type: cell-based; details: dexylosylbenanomicin B as hydrochloride
various kinds of fungi = experiment: antifungal activity, summary of Table 2; type: cell-based; details: as revealed from Table 2
Text: 4. Antibacterial and antifungal activities of benanomicin A, benanomicin B and dexylosylbenanomicn B (as the hydrochloride) are described below.

[10] = system: Corynebacterium bovis 1810; experiment: MIC by standard serial dilution method (bacteria)
Micrococcus luteus FDA16 = experiment: MIC by standard serial dilution method (bacteria)
[11] = system: Staphylococcus aureus FDA209P; experiment: MIC by standard serial dilution method (bacteria)
Pellicularia sasakii = experiment: MIC by standard serial dilution method (fungi); type: cell-based; details: dexylosylbenanomicin B as hydrochloride
Aspergillus niger = experiment: MIC by standard serial dilution method (fungi); type: cell-based; details: dexylosylbenanomicin B as hydrochloride
in vivo = details: mouse, iv
Escherichia coli NIHJ = experiment: MIC by standard serial dilution method (bacteria)
[12] = system: Shigella dysenteriae JS11910; experiment: MIC by standard serial dilution method (bacteria)
Candida Yu-1200 = experiment: MIC by standard serial dilution method (fungi); type: cell-based; details: YU1200, dexylosylbenanomicin B as hydrochloride
[13] = system: Mycobacterium smegmatis ATCC607; experiment: MIC by standard serial dilution method (bacteria); details: Mycolicibacterium smegmatis
Xanthomonas oryzae = experiment: microbe, parasite or virus in culture; type: cell-based
Cochliobolus miyabeanus = experiment: MIC by standard serial dilution method (fungi); type: cell-based; details: Bipolaris oryzae
Candida albicans 3147 = experiment: MIC by standard serial dilution method (fungi); type: cell-based; details: dexylosylbenanomicin B as hydrochloride
Escherichia coli K-12 = experiment: MIC by standard serial dilution method (bacteria); details: K12
Bacillus subtilis PCI219 = experiment: MIC by standard serial dilution method (bacteria)
[14] = Candida pseudotropicalis F-2, dexylosylbenanomicin B as hydrochloride, read-out: MIC

With `COc1cc(O)c2c(c1)C(=O)c1c(cc3c(c1O)-c1c(cc(C)c(C(=O)N[C@H](C)C(=O)O)c1O)[C@H](O[C@@H]1O[C@H](C)[C@H](N)[C@H](O[C@@H]4OC[C@@H](O)[C@H](O)[C@H]4O)[C@H]1O)[C@H]3O)C2=O` [Benanomicin B hydrochloride] the Solubility (Solubility; acetone) was “Only sparingly soluble”, the Solubility (Solubility; chloroform) was “Only sparingly soluble” and the Solubility (Solubility; dimethylformamide) was “soluble”. The Solubility (Solubility; dimethylsulfoxide) was “soluble”, the Solubility (Solubility; ethyl acetate) was “Only sparingly soluble” and the Solubility (Solubility; methanol) was “soluble”. The Solubility (Solubility; water) was “soluble” and the “Distinction between the basic, acidic and neutral natures of substance” value (“Distinction between the basic” below) [1] was “Amphoteric substance”.

For `COc1cc(O)c2c(c1)C(=O)c1c(cc3c(c1O)-c1c(cc(C)c(C(=O)N[C@H](C)C(=O)O)c1O)C(O[C@@H]1O[C@H](C)[C@H](N)[C@H](O)[C@H]1O)C3O)C2=O` (stereo partly shown) [Dexylosylbenanomicin B hydrochloride], the “Distinction between the basic” value [1] was “Amphoteric substance”.

With `COc1cc(O)c2c(c1)C(=O)c1c(cc3c(c1O)-c1c(cc(C)c(C(=O)N[C@H](C)C(=O)O)c1O)C(O[C@@H]1O[C@H](C)[C@H](O)[C@H](O[C@@H]4OC[C@@H](O)[C@H](O)[C@H]4O)[C@H]1O)C3O)C2=O` (stereo partly shown) [Benanomicin A] the MIC (Candida tropicalis F-1) was 25 µg/mL (≈ 30.2 µM), the MIC ([2]; F10, read-out: MIC) was 3.12 µg/mL (≈ 3.77 µM) and the MIC [3] was > 100 µg/mL. The MIC [4] was > 50 µg/mL, the MIC (Salmonella typhi T-63) was > 100 µg/mL and the MIC (Pyricularia oryzae) was 25 µg/mL (≈ 30.2 µM). For the same molecule, the MIC [5] was > 100 µg/mL, the MIC [6, 14] was 6.25 µg/mL (≈ 7.55 µM) and the MIC (Xanthomonas citri) was > 100 µg/mL. For the same molecule, the “Number of surviving mice” value (Candida albicans; 0.2 mg/mouse, subcutaneous) was 0/5, the “Percent of the number of surviving mice against the tested mice” value (shortened to “Percent of the number of surviving mice”) (Candida albicans; 0.2 mg/mouse, subcutaneous) was 0% and the “Number of surviving mice” value (Candida albicans; 0.3 mg/mouse, subcutaneous) was 2/5. For the same molecule, the “Percent of the number of surviving mice” value (Candida albicans; 0.3 mg/mouse, subcutaneous) was 40%, the “Number of surviving mice” value (Candida albicans; 0.4 mg/mouse, subcutaneous) was 1/5 and the “Percent of the number of surviving mice” value (Candida albicans; 0.4 mg/mouse, subcutaneous) was 20%. For the same molecule, the “Number of surviving mice” value (Candida albicans; 0.8 mg/mouse, subcutaneous) was 5/5, the “Percent of the number of surviving mice” value (Candida albicans; 0.8 mg/mouse, subcutaneous) was 100% and the “Number of surviving mice” value (Candida albicans; 1.5 mg/mouse, oral) was 0/5. For the same molecule, the “Percent of the number of surviving mice” value (Candida albicans; 1.5 mg/mouse, oral) was 0%, the “Number of surviving mice” value (Candida albicans; 3.0 mg/mouse, oral) was 0/5 and the “Percent of the number of surviving mice” value (Candida albicans; 3.0 mg/mouse, oral) was 0%. For the same molecule, the “Number of surviving mice” value (Candida albicans; 6.0 mg/mouse, oral) was 3/5, the “Percent of the number of surviving mice” value (Candida albicans; 6.0 mg/mouse, oral) was 60% and the “Number of surviving mice” value (Candida albicans; 12.0 mg/mouse, oral) was 3/5. The “Percent of the number of surviving mice” value (Candida albicans; 12.0 mg/mouse, oral) was 60%, the MIC [7] was 50 µg/mL (≈ 60.4 µM) and the MIC (Proteus vulgaris OX19) was > 100 µg/mL. The MIC (Candida krusei F-5) was 6.25 µg/mL (≈ 7.55 µM), the mice killed (Jcl:ICR-strain mice) was “none of the mice was killed” and the MIC [8] was 6.25 µg/mL (≈ 7.55 µM). The MIC [9] was 50 µg/mL (≈ 60.4 µM), the “antifungal activities against various kinds of fungi” value (“antifungal activities” below) (various kinds of fungi) was “substantial antifungal activities” and the MIC [10] was 12.5 µg/mL (≈ 15.1 µM). For the same molecule, the MIC (Micrococcus luteus FDA16) was 12.5 µg/mL (≈ 15.1 µM), the MIC [11] was 100 µg/mL (≈ 121 µM) and the MIC (Pellicularia sasakii) was 25 µg/mL (≈ 30.2 µM). For the same molecule, the MIC (Aspergillus niger) was 50 µg/mL (≈ 60.4 µM), the MTD (in vivo) was 600 mg/kg and the Solubility (Solubility; acetone) was “Only sparingly soluble”. For the same molecule, the Solubility (Solubility; alkaline water) was “soluble”, the Solubility (Solubility; chloroform) was “Only sparingly soluble” and the Solubility (Solubility; dimethylformamide) was “soluble”. The Solubility (Solubility; dimethylsulfoxide) was “soluble”, the Solubility (Solubility; ethyl acetate) was “Only sparingly soluble” and the Solubility (Solubility; methanol) was “Only sparingly soluble”. The Solubility (Solubility; water) was “insoluble”, the MIC (Escherichia coli NIHJ) was > 100 µg/mL and the MIC [12] was > 50 µg/mL. The “Distinction between the basic” value [1] was “Acidic substance”, the MIC (Candida Yu-1200) was 12.5 µg/mL (≈ 15.1 µM) and the MIC [13] was > 100 µg/mL. For the same molecule, the MIC (Xanthomonas oryzae) was > 100 µg/mL, the MIC (Cochliobolus miyabeanus) was > 100 µg/mL and the MIC (Candida albicans 3147) was 25 µg/mL (≈ 30.2 µM). For the same molecule, the MIC (Escherichia coli K-12) was > 100 µg/mL and the MIC (Bacillus subtilis PCI219) was > 100 µg/mL.

With `COc1cc(O)c2c(c1)C(=O)c1c(cc3c(c1O)-c1c(cc(C)c(C(=O)N[C@H](C)C(=O)O)c1O)C(O[C@@H]1O[C@H](C)[C@H](N)[C@H](O[C@@H]4OC[C@@H](O)[C@H](O)[C@H]4O)[C@H]1O)C3O)C2=O` (stereo partly shown) [Benanomicin B] the MIC (Candida tropicalis F-1) was > 100 µg/mL, the MIC ([2]; F10, read-out: MIC) was 1.56 µg/mL (≈ 1.89 µM) and the MIC [3] was > 100 µg/mL. For the same molecule, the MIC [4] was > 100 µg/mL, the MIC (Salmonella typhi T-63) was > 100 µg/mL and the MIC (Pyricularia oryzae) was 50 µg/mL (≈ 60.5 µM). For the same molecule, the MIC [5] was > 100 µg/mL, the MIC [6, 14] was 6.25 µg/mL (≈ 7.56 µM) and the MIC (Xanthomonas citri) was > 100 µg/mL. The MIC [7] was 25 µg/mL (≈ 30.2 µM), the MIC (Proteus vulgaris OX19) was > 100 µg/mL and the MIC (Candida krusei F-5) was 6.25 µg/mL (≈ 7.56 µM). The MIC [8] was 12.5 µg/mL (≈ 15.1 µM), the MIC [9] was 25 µg/mL (≈ 30.2 µM) and the “antifungal activities” value (various kinds of fungi) was “substantial antifungal activities”. The MIC [10] was 3.12 µg/mL (≈ 3.77 µM), the MIC (Micrococcus luteus FDA16) was 3.12 µg/mL (≈ 3.77 µM) and the MIC [11] was > 100 µg/mL. For the same molecule, the MIC (Pellicularia sasakii) was 50 µg/mL (≈ 60.5 µM), the MIC (Aspergillus niger) was > 100 µg/mL and the MTD (in vivo) was 100 mg/kg. For the same molecule, the MIC (Escherichia coli NIHJ) was > 100 µg/mL, the MIC [12] was > 100 µg/mL and the MIC (Candida Yu-1200) was 12.5 µg/mL (≈ 15.1 µM). The MIC [13] was > 100 µg/mL, the MIC (Xanthomonas oryzae) was > 100 µg/mL and the MIC (Cochliobolus miyabeanus) was > 100 µg/mL. The MIC (Candida albicans 3147) was 25 µg/mL (≈ 30.2 µM), the MIC (Escherichia coli K-12) was > 100 µg/mL and the MIC (Bacillus subtilis PCI219) was > 100 µg/mL.

Molecule `COc1cc(O)c2c(c1)C(=O)c1c(cc3c(c1O)-c1c(cc(C)c(C(=O)N[C@H](C)C(=O)O)c1O)C(O[C@@H]1O[C@H](C)[C@H](N)[C@H](O)[C@H]1O)C3O)C2=O` (stereo partly shown) [Dexylosylbenanomicin B] has an MIC (Candida tropicalis F-1) of 6.25 µg/mL (≈ 9 µM), an MIC ([2]; F10) of 3.13 µg/mL (≈ 4.51 µM) and an MIC (Pyricularia oryzae) of 25 µg/mL (≈ 36 µM). It also gave an MIC [6] of 3.13 µg/mL (≈ 4.51 µM), an MIC (Xanthomonas citri) of 100 µg/mL (≈ 144 µM) and an MIC [7] of 50 µg/mL (≈ 72 µM). It also gave an MIC (Candida krusei F-5) of 12.5 µg/mL (≈ 18 µM), an MIC [8] of 6.25 µg/mL (≈ 9 µM) and an MIC [9] of 50 µg/mL (≈ 72 µM). The “antifungal activities” value (various kinds of fungi) was “substantial antifungal activities”, the MIC (Pellicularia sasakii) was 25 µg/mL (≈ 36 µM) and the MIC (Aspergillus niger) was 25 µg/mL (≈ 36 µM). It also gave an MTD (in vivo) of 100 mg/kg, an MIC (Candida Yu-1200) of 6.25 µg/mL (≈ 9 µM) and an MIC (Xanthomonas oryzae) of 100 µg/mL (≈ 144 µM). It also gave an MIC (Cochliobolus miyabeanus) of 50 µg/mL (≈ 72 µM) and an MIC (Candida albicans 3147) of 6.25 µg/mL (≈ 9 µM).
